# Tests used:
# [1] = tested on: psoriasis caused by imiquimod; assay: Epithelial thickness of back skin by H&E staining in imiquimod psoriasis animal model; type: in vivo, Balb/c mice; conditions: after treatment for a week, skin application, compared to the IMQ group
# Excerpt: (§1) 6-week-old male Balb/c mice (Kangwon Life Science, Korea) were purchased and acclimated for a week, and psoriasis was induced using 5% imiquimod (Donga ST, Korea). FIG. 1 is a schematic experimental scheme of an animal model. Anti-psoriatic efficacy was investigated using a total of 20 animal models including 5 animals per experimental group.
# (§2) In order to determine the effect of the extract of Sphallerocarpus gracilis on psoriasis caused by imiquimod, the experimental animals of Section 2-1 were used. The following four experimental groups were constructed and five animals were randomly assigned to each group:
# Normal control without any treatment (Non-treatment control, NTC);
# Disease group with psoriasis induced using imiquimod by the method of Section 2-1 (IMQ);
# Group to the skin of which dexamethasone was applied every day after induction of psoriasis (Positive control, DEX); and
# Group to the skin of which the extract of Sphallerocarpus gracilis of Example 1 was applied (Experimental group, M215) […]
# After treatment for a week, the back skin tissue was removed from each animal, and then a paraffin block was prepared. The paraffin block was cut to 5 μm to prepare a slide sample, and then the change in the thickness of the skin tissue was measured through H&E staining.
# [2] = tested on: filaggrin, loricrin, keratin 1 and keratin 14; assay: Immunofluorescence of biomarkers for epithelial tissue damage in back skin of psoriasis animal model; type: in vivo, Balb/c mice; conditions: after treatment for a week, IMQ group decreased compared to non-treatment group
# Excerpt: as §1, §2
# The experiment was conducted by inducing psoriasis with IMQ cream and then performing daily application in the amount shown in FIG. 2 to the experimental group and the DEX group. FIG. 3 is an image showing the treatment group for 7 days compared to the psoriasis-induced model as the animal experimental model.
# After treatment for a week, back skin tissue was removed from each animal and a paraffin block was then prepared. A paraffin block was cut to 5 μm to prepare a slide sample, and then the change in biomarkers for epithelial tissue damage due to psoriasis was measured through immunofluorescence.
smiles,measurement,setting,value
"C[C@@H]1C[C@H]2[C@@H]3CCC4=CC(=O)C=C[C@]4(C)[C@@]3(F)[C@@H](O)C[C@]2(C)[C@@]1(O)C(=O)CO [DEX, dexamethasone]",thickness of the epithelial layer,[1],decreased thickness
same,expression level of filaggrin,[2],increased
same,expression level of keratin 1,[2],increased
same,expression level of keratin 14,[2],increased
same,expression level of loricrin,[2],increased

# Source: patent publication US11648284B2, “Composition for ameliorating psoriasis symptoms containing extract of Sphallerocarpus gracilis” (KOREA INSTITUTE OF SCIENCE AND TECHNOLOGY, priority 2020, dated 2023)
